What all share (format): physicochemical
The nature of data set [1]: Long-term (6 month) chemical stability, total impurities by HPLC. The settings on record: for Total Impurities: 25 ± 2° C./60 ± 5% RH. The protocol:
The long-term (6 month) chemical stability of Form A and amorphous trofinetide were tested under the same conditions: 25±2° C./60±5% relative humidity (RH). […] [table]

Data set [2] can be described thus: Stability under humidity conditions (two days exposure, XRPD / water content).
A short description of data set [3]: Dynamic vapor sorption-desorption (DVS) analysis. As to the method:
DVS analysis was carried out TA Instruments Q5000 Dynamic Vapor Sorption analyzer. The instrument was calibrated with standard weights and a sodium bromide standard for humidity. Samples were analyzed at 25° C. with a maximum equilibration time of 60 minutes in 10% relative humidity (RH) steps from 5 to 95% RH (adsorption cycle) and from 95 to 5% RH (desorption cycle). Form A is non-hygroscopic.

Where a SMILES comes first, the peptide text is derived from it. [ ]: non-standard residue; d: D form. αMeP = C[C@@]1(C(=O)O)CCCN1

Take `C[C@@]1(C(=O)N[C@@H](CCC(=O)O)C(=O)O)CCCN1C(=O)CN` [amorphous trofinetide (Batch 1), glycyl-L-2-methylprolyl-L-glutamic acid] (H-Gly-[αMeP]-Glu-OH): the “Total Impurities” value in data set [1] (1 month) was found to be 0.3%; in data set [1] (3 months) it was 0.8%; in data set [1] (6 months), 1.0%; in data set [1] (Initial), 0.3%.
In the case of `C[C@@]1(C(=O)N[C@@H](CCC(=O)O)C(=O)O)CCCN1C(=O)CN` [amorphous trofinetide (Batch 2), glycyl-L-2-methylprolyl-L-glutamic acid] (H-Gly-[αMeP]-Glu-OH), the results for the “Total Impurities” value in data set [1] (3 months), in data set [1] (6 months) and in data set [1] (Initial) were 0.6%, 0.9% and 0.2%, respectively.
Turning to `C[C@@]1(C(=O)N[C@@H](CCC(=O)O)C(=O)O)CCCN1C(=O)CN` [amorphous trofinetide (Batch 3), glycyl-L-2-methylprolyl-L-glutamic acid] (H-Gly-[αMeP]-Glu-OH), the “Total Impurities” value is on record as 0.2% in data set [1] (1 month), 0.6% in data set [1] (3 months), 0.8% in data set [1] (6 months) and 0.2% in data set [1] (Initial).
In the case of `C[C@@]1(C(=O)N[C@@H](CCC(=O)O)C(=O)O)CCCN1C(=O)CN` [Form A, (2S)-2-[[(2S)-1-(2-aminoacetyl)-2-methylpyrrolidine-2-carbonyl]amino]pentanedioic acid] (H-Gly-[αMeP]-Glu-OH), the “Stability under humidity conditions” value in data set [2] (large range of humidity conditions) is “stable under a large range of humidity conditions”. Besides, the “Solid form change under extreme dry conditions (XRPD)” value in data set [2] (open container exposed under 0% RH for two days) is “lost the water and became disordered”. Besides, the Hygroscopicity entry in data set [3] (25° C.) is on record as “non-hygroscopic”. Besides, in data set [3] (after DVS), the “Solid form after DVS by XRPD” value is “remained as trofinetide Form A”. Moreover, the “Moisture uptake (adsorption cycle)” value in data set [3] (exposed from 5% RH to 95% RH) was “little moisture uptake”. The “Moisture loss (desorption cycle)” value in data set [3] (exposed from 95% RH to 5% RH) is recorded as “little moisture loss”. Further, in data set [1] (6 month, 25±2° C./60±5% RH), the “Long-term chemical stability compared with amorphous trofinetide” value is “more stable than amorphous trofinetide”. Further, the “Total Impurities” value is 0.0% in data set [1] (1 month), 0.03% in data set [1] (3 months), “<PLOQ” in data set [1] (6 months) and “<PLOQ” in data set [1] (Initial).

Values taken from US20260062382A1, “CRYSTALLINE FORMS OF TROFINETIDE” (ACADIA Pharmaceuticals Inc., priority 2021, published 2026).
